According to patent US20160297830A1, “NOVEL COMPOUNDS USEFUL FOR THE TREATMENT OF BACTERIAL INFECTIOUS DISEASES” (GALAPAGOS NV, priority 2013, published 2016):
≈ marks a conversion by molar mass, not a printed value.

System: H. influenza Hi4 efflux pump KO
Experiment: Antibacterial activity assay (MIC), H. influenza Hi4
Type: cell-based

| Molecule | MIC Hi4 efflux pump KO | MIC |
| --- | --- | --- |
| 8-O-4-Bromo-5-Chloro-1H-pyrrole-2′-carbonylbranimycin [Compound 35] | 16 µg/mL | – |
| 8-O-5-Bromo-4-Chloro-1H-pyrrole-2′-carbonylbranimycin [Compound 33] | 16 µg/mL | – |
| COC[C@H]1[C@@H](O)[C@@H]2O[C@@]34/C(C)=C/[C@@H](C)[C@@H]([C@H](O)COC)OC(=O)[C@H](COC)[C@H]3C=C[C@@H]2[C@H]4[C@@H]1O [Branimycin, reference compound] | – | 4 µg/mL (≈ 8.29 µM) |
| COC[C@@H](O)[C@H]1OC(=O)[C@H](COC)[C@H]2C=C[C@H]3[C@H]4O[C@]2(/C(C)=C/[C@H]1C)[C@@H]3[C@H](O)[C@@H](C)[C@H]4O [Compound 1, Baleomycin] | – | 2 µg/mL (≈ 4.42 µM) |
| COC[C@@H]1[C@@H](O)[C@@H]2[C@H]3C=C[C@@H]4[C@@H](COC)C(=O)O[C@H]([C@H](O)COC)[C@H](C)/C=C(\C)[C@@]24O[C@H]3[C@@H]1OC(=O)c1ccc[nH]1 [Compound 2, 8-O-1H-pyrrole-2′-carbonylbranimycin] | – | 4 µg/mL (≈ 6.95 µM) |
| COC[C@@H](O)[C@H]1OC(=O)[C@H](COC)[C@H]2C=C[C@H]3[C@H]4O[C@]2(/C(C)=C/[C@H]1C)[C@@H]3[C@H](O)[C@@H](C)[C@H]4OC(=O)c1ccc[nH]1 [Compound 3, 8-O-1H-pyrrole-2′-carbonylbaleomycin] | – | 1 µg/mL (≈ 1.83 µM) |
| COCC[C@H]1OC(=O)[C@H](COC)[C@H]2C=C[C@H]3[C@H]4O[C@]2(/C(C)=C/[C@H]1C)[C@@H]3[C@H](O)[C@@H](COC)[C@H]4OC(=O)c1ccc[nH]1 [Compound 4, 17-Deoxy-8-O-1H-pyrrole-2′-carbonylbranimycin] | – | 16 µg/mL (≈ 28.6 µM) |
| COC[C@@H]1[C@@H](O)[C@@H]2[C@H]3C=C[C@@H]4[C@@H](COC)C(=O)O[C@H]([C@H](O)COC)[C@H](C)/C=C(\C)[C@@]24O[C@H]3[C@@H]1OC(=O)c1ccoc1 [Compound 5, 8-O-Furane-3′-carbonylbranimycin] | – | 8 µg/mL (≈ 13.9 µM) |
| COC[C@@H]1[C@@H](O)[C@@H]2[C@H]3C=C[C@@H]4[C@@H](COC)C(=O)O[C@H]([C@H](O)COC)[C@H](C)/C=C(\C)[C@@]24O[C@H]3[C@@H]1OC(=O)c1ccc(C)[nH]1 [Compound 6, 8-O-5-Methyl-1H-pyrrole-2′-carbonylbranimycin] | – | 32 µg/mL (≈ 54.3 µM) |
| COC[C@@H](O)[C@H]1OC(=O)[C@H](COC)[C@H]2C=C[C@H]3[C@H]4O[C@]2(/C(C)=C/[C@H]1C)[C@@H]3[C@H](O)[C@@H](C)[C@H]4OC(=O)c1ccoc1 [Compound 7, 8-O-Furane-3′-carbonylbaleomycin] | – | 0.5 µg/mL (≈ 0.915 µM) |
| COC[C@@H]1[C@@H](O)[C@@H]2[C@H]3C=C[C@@H]4[C@@H](COC)C(=O)O[C@H]([C@H](O)COC)[C@H](C)/C=C(\C)[C@@]24O[C@H]3[C@@H]1OC(=O)c1cocn1 [Compound 8, 8-O-Oxazole-4′-carbonylbranimycin] | – | > 64 µg/mL |
| COC[C@@H]1[C@@H](O)[C@@H]2[C@H]3C=C[C@@H]4[C@@H](COC)C(=O)O[C@H]([C@H](O)COC)[C@H](C)/C=C(\C)[C@@]24O[C@H]3[C@@H]1OC(=O)c1ccsc1 [Compound 9, 8-O-Thiophene-3′-carbonylbranimycin] | – | 16 µg/mL (≈ 27 µM) |
| COC[C@@H]1[C@@H](O)[C@@H]2[C@H]3C=C[C@@H]4[C@@H](COC)C(=O)O[C@H]([C@H](O)COC)[C@H](C)/C=C(\C)[C@@]24O[C@H]3[C@@H]1OC(=O)c1cc[nH]n1 [Compound 10, 8-O-1H-Pyrazole-3′-carbonylbranimycin] | – | 32 µg/mL (≈ 55.5 µM) |
| COC[C@@H]1[C@@H](O)[C@@H]2[C@H]3C=C[C@@H]4[C@@H](COC)C(=O)O[C@H]([C@H](O)COC)[C@H](C)/C=C(\C)[C@@]24O[C@H]3[C@@H]1OC(=O)c1ccoc1C [Compound 11, 8-O-2-Methylfurane-3′-carbonylbranimycin] | – | 32 µg/mL (≈ 54.2 µM) |
| COC[C@@H]1[C@@H](O)[C@@H]2[C@H]3C=C[C@@H]4[C@@H](COC)C(=O)O[C@H]([C@H](O)COC)[C@H](C)/C=C(\C)[C@@]24O[C@H]3[C@@H]1OC(=O)c1cc(C)c[nH]1 [Compound 12, 8-O-4-Methyl-1H-pyrrole-2′-carbonylbranimycin] | – | 4 µg/mL (≈ 6.78 µM) |
| COC[C@@H]1[C@@H](O)[C@@H]2[C@H]3C=C[C@@H]4[C@@H](COC)C(=O)O[C@H]([C@H](O)COC)[C@H](C)/C=C(\C)[C@@]24O[C@H]3[C@@H]1OC(=O)c1ccon1 [Compound 13, 8-O-Isoxazole-3′-carbonylbranimycin] | – | 16 µg/mL (≈ 27.7 µM) |
| COC[C@@H]1[C@@H](O)[C@@H]2[C@H]3C=C[C@@H]4[C@@H](COC)C(=O)O[C@H]([C@H](O)COC)[C@H](C)/C=C(\C)[C@@]24O[C@H]3[C@@H]1OC(=O)c1cnco1 [Compound 14, 8-O-Oxazole-5′ carbonylbranimycin] | – | 64 µg/mL (≈ 111 µM) |
| COC[C@H]1[C@@H](O)[C@@H]2O[C@@]34/C(C)=C/[C@@H](C)[C@@H]([C@H](O)COC)OC(=O)[C@H](COC)[C@H]3CC[C@@H]2[C@H]4[C@@H]1O [Compound 15, 4,5-Dihydro-branimycin] | – | 64 µg/mL (≈ 132 µM) |

| Molecule | MIC Hi4 efflux pump KO | MIC |
| --- | --- | --- |
| COC[C@@H]1[C@@H](O)[C@@H]2[C@H]3CC[C@@H]4[C@@H](COC)C(=O)O[C@H]([C@H](O)COC)[C@H](C)/C=C(\C)[C@@]24O[C@H]3[C@@H]1OC(=O)c1ccc[nH]1 [Compound 16, 4,5-Dihydro-8-O-1H-pyrrole-2′-carbonylbranimycin] | – | 16 µg/mL (≈ 27.7 µM) |
| COCC[C@H]1OC(=O)[C@H](COC)[C@H]2C=C[C@H]3[C@H]4O[C@]2(/C(C)=C/[C@H]1C)[C@@H]3[C@H](O)[C@@H](COC)[C@H]4O [Compound 17, 17-Deoxybranimycin] | – | 8 µg/mL (≈ 17.1 µM) |
| COC[C@@H]1[C@@H](O)[C@@H]2[C@H]3C=C[C@@H]4[C@@H](COC)C(=O)O[C@H]([C@@H](COC)OC)[C@H](C)/C=C(\C)[C@@]24O[C@H]3[C@@H]1OC(=O)c1ccc[nH]1 [Compound 18, 17-O-Methyl-8-O-1H-pyrrole-2′-carbonylbranimycin] | – | 4 µg/mL (≈ 6.78 µM) |
| COC[C@@H]1[C@@H](O)[C@@H]2[C@H]3C=C[C@@H]4[C@@H](COC)C(=O)O[C@H]([C@H](O)COC)[C@H](C)/C=C(\C)[C@@]24O[C@H]3[C@@H]1OC(=O)c1cc(F)c[nH]1 [Compound 19, 8-O-4-Fluoro-1H-pyrrole-2′-carbonylbranimycin] | – | 0.25 µg/mL (≈ 0.421 µM) |
| COCC(=O)[C@H]1OC(=O)[C@H](COC)[C@H]2C=C[C@H]3[C@H]4O[C@]2(/C(C)=C/[C@H]1C)[C@@H]3[C@H](O)[C@@H](COC)[C@H]4OC(=O)c1ccc[nH]1 [Compound 20, 18-Deoxy-18-oxo-8-O-1H-pyrrole-2′-carbonylbranimycin] | – | 32 µg/mL (≈ 55.8 µM) |
| COC[C@@H]1[C@@H](O)[C@@H]2[C@H]3C=C[C@@H]4[C@@H](COC)C(=O)OC[C@H](C)/C=C(\C)[C@@]24O[C@H]3[C@@H]1OC(=O)c1ccc[nH]1 [Compound 22, 17,18-Dinor-8-O-1H-pyrrole-2′-carbonybranimycin] | – | 32 µg/mL (≈ 63.8 µM) |
| COC[C@@H](O)[C@H]1OC(=O)[C@H](COC)[C@H]2C=C[C@H]3[C@H]4O[C@]2(/C(C)=C/[C@H]1C)[C@@H]3[C@H](O)[C@@H](C)[C@H]4OC(=O)c1cc(F)c[nH]1 [Compound 23, 8-O-4-Fluoro-1H-pyrrole-2′-carbonylbaleomycin] | – | 0.5 µg/mL (≈ 0.887 µM) |
| COC[C@@H]1[C@@H](O)[C@@H]2[C@H]3C=C[C@@H]4[C@@H](COC)C(=O)O[C@H](C(C)(O)COC)[C@H](C)/C=C(\C)[C@@]24O[C@H]3[C@@H]1OC(=O)c1ccc[nH]1 (some centres unmarked) [Compound 24, 17-Methyl-8-O-1H-pyrrole-2′-carbonylbranimycin] | – | 8 µg/mL (≈ 13.6 µM) |
| COCC(=NO)[C@H]1OC(=O)[C@H](COC)[C@H]2C=C[C@H]3[C@H]4O[C@]2(/C(C)=C/[C@H]1C)[C@@H]3[C@H](O)[C@@H](COC)[C@H]4OC(=O)c1ccc[nH]1 [Compound 25, 18-Deoxy-18-oximino-8-O-1H-pyrrole-2′-carbonylbranimycin] | – | 1 µg/mL (≈ 1.7 µM) |
| COC[C@@H]1[C@@H](O)[C@@H]2[C@H]3C=C[C@@H]4[C@@H](COC)C(=O)O[C@H]([C@H](O)COC)[C@H](C)/C=C(\C)[C@@]24O[C@H]3[C@@H]1OC(=O)c1cc(C#N)c[nH]1 [Compound 26, 8-O-4-Cyano-1H-pyrrole-2′-carbonylbranimycin] | – | 8 µg/mL (≈ 13.3 µM) |
| COC/C(=N\OC)[C@H]1OC(=O)[C@H](COC)[C@H]2C=C[C@H]3[C@H]4O[C@]2(/C(C)=C/[C@H]1C)[C@@H]3[C@H](O)[C@@H](COC)[C@H]4OC(=O)c1ccc[nH]1 [Compound 27, 18-Deoxy-18-methoximino-8-O-1H-pyrrole-2′-carbonylbranimycin] | – | 8 µg/mL (≈ 13.3 µM) |
| COC[C@@H]1[C@@H](O)[C@@H]2[C@H]3C=C[C@@H]4[C@@H](COC)C(=O)O[C@H]([C@H](O)COC)[C@H](C)/C=C(\C)[C@@]24O[C@H]3[C@@H]1OC(=O)c1cc(Cl)c[nH]1 [Compound 28, 8-O-4-Chloro-1H-pyrrole-2′-carbonylbranimycin] | – | 4 µg/mL (≈ 6.56 µM) |
| COCC(=NOC(C)=O)[C@H]1OC(=O)[C@H](COC)[C@H]2C=C[C@H]3[C@H]4O[C@]2(/C(C)=C/[C@H]1C)[C@@H]3[C@H](O)[C@@H](COC)[C@H]4OC(=O)c1ccc[nH]1 [Compound 29, 18-Acetylimino-18-deoxy-8-O-1H-pyrrole-2′-carbonylbranimycin] | – | 2 µg/mL (≈ 3.17 µM) |
| COC[C@@H](O)[C@H]1OC(=O)[C@H](COC)[C@H]2C=C[C@H]3[C@H]4O[C@]2(/C(C)=C/[C@H]1C)[C@@H]3[C@H](O)[C@@H](C)[C@H]4OC(=O)c1cc(Cl)c[nH]1 [Compound 30, 8-O-4-Chloro-1H-pyrrole-2′-carbonylbaleomycin] | – | 4 µg/mL (≈ 6.9 µM) |
| COC[C@@H]1[C@@H](O)[C@@H]2[C@H]3C=C[C@@H]4[C@@H](COC)C(=O)O[C@H]([C@H](O)COC)[C@H](C)/C=C(\C)[C@@]24O[C@H]3[C@@H]1OC(=O)c1cc(Br)c[nH]1 [Compound 32, 8-O-4-Bromo-1H-pyrrole-2′-carbonylbranimycin] | – | 4 µg/mL (≈ 6.11 µM) |
| COC[C@@H]1[C@@H](O)[C@@H]2[C@H]3C=C[C@@H]4[C@@H](COC)C(=O)O[C@H]([C@H](O)COC)[C@H](C)/C=C(\C)[C@@]24O[C@H]3[C@@H]1OC(=O)c1cc(Br)c(Br)[nH]1 [Compound 34, 8-O-4,5-Dibromo-1H-pyrrole-2′-carbonylbranimycin] | – | 8 µg/mL (≈ 10.9 µM) |
| COC[C@@H]1[C@@H](O)[C@@H]2[C@H]3C=C[C@@H]4[C@@H](COC)C(=O)O[C@H]([C@H](O)COC)[C@H](C)/C=C(\C)[C@@]24O[C@H]3[C@@H]1OC(=O)c1cc(Br)c(Br)o1 [Compound 36, 8-O-4,5-Dibromofurane-2′-carbonylbranimycin] | – | 32 µg/mL (≈ 43.6 µM) |
